Test results taken from BigSolDB 2.1.

N#Cc1cccc([N+](=O)[O-])c1C#N
solubility (mole fraction)
Details | 278.15 K | 283.15 K | 288.15 K | 293.15 K | 298.15 K | 303.15 K | 308.15 K | 313.15 K | 318.15 K | 323.15 K
in NMP | 0.0839 | 0.0936 | 0.104 | 0.115 | 0.128 | 0.141 | 0.155 | 0.17 | 0.186 | 0.203
in acetone | 0.0204 | 0.0242 | 0.0286 | 0.0338 | 0.0399 | 0.0472 | 0.0558 | 0.0661 | 0.0783 | 0.0929
in ethanol | 0.000924 | 0.00111 | 0.00134 | 0.0016 | 0.00194 | 0.00232 | 0.00273 | 0.00325 | 0.00382 | 0.00448
in ethyl acetate | 0.0178 | 0.0208 | 0.0242 | 0.0281 | 0.0324 | 0.0372 | 0.0426 | 0.0487 | 0.0555 | 0.063
in ethylene glycol | 0.0131 | 0.0158 | 0.019 | 0.0226 | 0.0268 | 0.0317 | 0.0373 | 0.0438 | 0.0512 | 0.0596
in isobutanol | 0.000381 | 0.000424 | 0.000477 | 0.000552 | 0.000643 | 0.000765 | 0.000921 | 0.00111 | 0.00135 | 0.00169
in isopropanol | 0.000561 | 0.000681 | 0.000837 | 0.00103 | 0.00125 | 0.00151 | 0.00179 | 0.00216 | 0.00257 | 0.00305
in methanol | 0.00203 | 0.0024 | 0.00283 | 0.00332 | 0.00388 | 0.00452 | 0.00523 | 0.00597 | 0.00695 | 0.00796
in n-butanol | 0.000411 | 0.000478 | 0.000569 | 0.000686 | 0.000836 | 0.001 | 0.0012 | 0.00143 | 0.00171 | 0.00207
in n-propanol | 0.000735 | 0.000899 | 0.00109 | 0.00132 | 0.00159 | 0.00189 | 0.00226 | 0.00268 | 0.00317 | 0.00373
in toluene | 0.000946 | 0.00116 | 0.00142 | 0.00173 | 0.0021 | 0.00254 | 0.00305 | 0.00367 | 0.00437 | 0.00521
in water | 5.32e-05 | 6.38e-05 | 7.98e-05 | 9.78e-05 | 0.00012 | 0.000146 | 0.000176 | 0.00021 | 0.00025 | 0.000298
